Consider twelve compounds from patent publication US9932338B2, “Compounds having muscarinic receptor antagonist and BETA2 adrenergic receptor agonist activity” (CHIESI FARMACEUTICI S.P.A., priority 2015, dated 2018).

In test [1] the target is T1, Human β2 adrenoceptor (Homo sapiens, UniProt P07550).
T1 construct: purchased Perkin Elmer
Nature of the test: β2 adrenoceptor radioligand binding assay. The note with it: human β2 adrenoceptor membranes, 125-I cyanopindolol; Ki from IC50 by Cheng and Prusoff; read-out: B2 binding affinity (Ki class). The protocol:
Example. β2 Adrenoceptor Radioligand Binding Assay
Human β2 adrenoceptor membranes (7.5 ug/well) from Perkin Elmer were incubated with 0.3 nM 125-I Cyanopindolol with or without test compounds, or a saturating concentration of s-propranolol (2 μM) for the determination of non-specific binding. The assay was carried out in 96-well polypropylene plates in a volume of 200 ul. The assay buffer used was 25 mM HEPES, 0.5% BSA (w/v), 1 mM EDTA, 0.02% ascorbic acid (v/v), (pH 7.4). The final assay concentration of DMSO was 0.5% (v/v). The plates were sealed and incubated for 1 hour at room temperature on an orbital shaker (slow speed). Membranes were harvested onto 96-well unifilter GF/C filter plates pre-treated with 0.5% polyethyleneimine (v/v), using a filter manifold, washed six times with 200 μl of wash buffer containing 10 mM HEPES and 500 mM NaCl. The plates were dried before addition of 50 μl of microscint-0, sealed then read in a Trilux Microbeta scintillation counter. IC50 values are determined from competition curves using a non-linear curve fitting program. Ki values were calculated from IC50 values by the Cheng and Prusoff equation.

The target of test [2] is T2, Human M3 receptor (Homo sapiens, UniProt P20309).
T2 construct: purchased Perkin Elmer
Kind of test: M3 receptor radioligand binding assay. The settings on record: human M3 receptor membranes, [N-methyl-3H] scopolamine methyl chloride; Ki from IC50 by Cheng and Prusoff; read-out: M3 binding affinity (Ki class). Here is the method:
Example. M3 Receptor Radioligand Binding Assay
The assay was carried out in 96-well polypropylene plates in a volume of 250 ul. […] The final assay concentration of DMSO was 0.5% (v/v). The plates were sealed and incubated for 2 hours at room temperature on an orbital shaker (slow speed). Membranes were harvested onto 96-well unifilter GF/C filter plates pre-treated with 0.5% polyethyleneimine (v/v), using a filter manifold, washed four times with 200 μl of assay buffer. The plates were dried before addition of 50 μl of microscint-0, sealed then read in a Trilux Microbeta scintillation counter. IC50 values are determined from competition curves using a non-linear curve fitting program. Ki values were calculated from IC50 values by the Cheng and Prusoff equation.

pKi: −log10 of the molar value.

T2 sequence (P20309 whole entry): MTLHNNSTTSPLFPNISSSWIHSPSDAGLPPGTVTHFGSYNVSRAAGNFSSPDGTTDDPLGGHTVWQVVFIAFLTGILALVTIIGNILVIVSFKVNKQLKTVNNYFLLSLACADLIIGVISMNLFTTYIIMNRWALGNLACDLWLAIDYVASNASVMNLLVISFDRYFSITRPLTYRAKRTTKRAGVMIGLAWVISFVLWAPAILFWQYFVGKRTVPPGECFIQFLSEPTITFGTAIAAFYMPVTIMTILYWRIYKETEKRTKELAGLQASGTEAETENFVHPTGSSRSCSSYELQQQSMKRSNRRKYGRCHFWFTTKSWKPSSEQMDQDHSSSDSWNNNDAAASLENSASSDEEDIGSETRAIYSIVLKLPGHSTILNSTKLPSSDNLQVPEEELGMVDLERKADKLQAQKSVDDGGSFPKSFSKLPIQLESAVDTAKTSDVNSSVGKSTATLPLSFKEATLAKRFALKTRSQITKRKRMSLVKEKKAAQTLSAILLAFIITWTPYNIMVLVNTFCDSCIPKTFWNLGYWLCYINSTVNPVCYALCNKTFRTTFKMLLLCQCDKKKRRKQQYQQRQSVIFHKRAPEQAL
T1 sequence (P07550 whole entry): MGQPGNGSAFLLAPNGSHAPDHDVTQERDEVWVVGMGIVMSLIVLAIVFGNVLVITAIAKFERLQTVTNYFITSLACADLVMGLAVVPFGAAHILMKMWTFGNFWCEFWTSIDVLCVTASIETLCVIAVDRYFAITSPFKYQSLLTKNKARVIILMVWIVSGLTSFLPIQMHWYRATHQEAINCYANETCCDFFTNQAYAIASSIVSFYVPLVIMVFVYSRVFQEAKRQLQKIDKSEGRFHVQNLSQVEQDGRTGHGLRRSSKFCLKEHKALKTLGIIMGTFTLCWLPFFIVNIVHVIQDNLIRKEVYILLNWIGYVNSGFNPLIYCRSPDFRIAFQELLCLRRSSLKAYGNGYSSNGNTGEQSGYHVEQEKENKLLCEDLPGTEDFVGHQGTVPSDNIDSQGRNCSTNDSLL

As for `O=C(NCCCCNC[C@H](O)c1ccc(O)c2[nH]c(=O)ccc12)c1cccc(C(=O)NC2(C(=O)O[C@H]3CN4CCC3CC4)CCc3ccccc32)c1` (stereo partly drawn) [Compound 8, (R)-quinuclidin-3-yl 1-(3-((4-(((R)-2-hydroxy-2-(8-hydroxy-2-oxo-1,2-dihydroquinolin-5-yl)ethyl)amino)butyl)carbamoyl)benzamido)-2,3-dihydro-1H-indene-1-carboxylate], the pKi in test [1] was under 8.00; in test [2], 8.00 to 9.00.

Take `O=C(O[C@H]1CN2CCC1CC2)C1(NCc2cccc(OCc3ccc(CNC[C@H](O)c4ccc(O)c5[nH]c(=O)ccc45)cc3)c2)CCc2ccccc21` (stereo partly drawn) [Compound 20, (R)-quinuclidin-3-yl 1-((3-((4-((((R)-2-hydroxy-2-(8-hydroxy-2-oxo-1,2-dihydroquinolin-5-yl)ethyl)amino)methyl)benzyl)oxy)benzyl)amino)-2,3-dihydro-1H-indene-1-carboxylate]: the pKi in test [1] was over 9.00; in test [2] it was 8.00 to 9.00.

Regarding `O=C(O[C@H]1CN2CCC1CC2)C1(NCc2cccc(OCCCCCNC[C@H](O)c3ccc(O)c4[nH]c(=O)ccc34)c2)CCc2ccccc21` (stereo partly drawn) [Compound 3, (R)-quinuclidin-3-yl 1-((3-((5-(((R)-2-hydroxy-2-(8-hydroxy-2-oxo-1,2-dihydroquinolin-5-yl)ethyl)amino)pentyl)oxy)benzyl)amino)-2,3-dihydro-1H-indene-1-carboxylate], the pKi in test [1] and in test [2] was over 9.00 each time.

Turning to `Cc1cccc2c1CCC2(NCc1cccc(C(=O)NCCCCNC[C@H](O)c2ccc(O)c3[nH]c(=O)ccc23)c1)C(=O)O[C@H]1CN2CCC1CC2` (stereo partly drawn) [Compound 5, (R)-quinuclidin-3-yl 1-((3-((4-(((R)-2-hydroxy-2-(8-hydroxy-2-oxo-1,2-dihydroquinolin-5-yl)ethyl)amino)butyl)carbamoyl)benzyl)amino)-4-methyl-2,3-dihydro-1H-indene-1-carboxylate], the pKi in test [1] and in test [2] was over 9.00 each time.

For `O=C(NCCCCNC[C@H](O)c1ccc(O)c2[nH]c(=O)ccc12)c1ccc(CNC2(C(=O)O[C@@H]3CCCN(Cc4ccccc4)C3)CCc3ccccc32)s1` (single isomer, unassigned; stereoisomer 1) [Compound 25], the figures for the pKi in test [1] and in test [2] were under 8.00 and over 9.00, respectively.

`O=C(NC1(C(=O)OCC2CCN(Cc3ccccc3)CC2)CCc2ccccc21)c1cccc(OCCCCCCNC[C@H](O)c2ccc(O)c3[nH]c(=O)ccc23)c1` (stereo partly drawn) [Compound 9, (1-benzylpiperidin-4-yl)methyl 1-(3-((6-(((R)-2-hydroxy-2-(8-hydroxy-2-oxo-1,2-dihydroquinolin-5-yl)ethyl)amino)hexyl)oxy)benzamido)-2,3-dihydro-1H-indene-1-carboxylate]: the values for the pKi in test [1] and in test [2] were under 8.00 and over 9.00, respectively.

Take `O=C(NC1(C(=O)O[C@H]2CN3CCC2CC3)CCc2ccccc21)c1cccc(OCCCCNC[C@H](O)c2ccc(O)c3[nH]c(=O)ccc23)c1` (stereo partly drawn) [Compound 6, (R)-quinuclidin-3-yl 1-(3-(4-(((R)-2-hydroxy-2-(8-hydroxy-2-oxo-1,2-dihydroquinolin-5-yl)ethyl)amino)butoxy)benzamido)-2,3-dihydro-1H-indene-1-carboxylate]: the pKi in test [1] is 8.00 to 9.00; in test [2], over 9.00.

As for `Cc1cccc2c1CCC2(NC(=O)c1cccc(OCCCCCNC[C@H](O)c2ccc(O)c3[nH]c(=O)ccc23)c1)C(=O)O[C@H]1CN2CCC1CC2` (single isomer, unassigned; diastereoisomer 2) [Compound 5B], the pKi in test [1] and in test [2] was over 9.00 throughout.

As for `O=C(NC1(C(=O)OCC2CCN(Cc3ccco3)CC2)CCc2ccccc21)c1cccc(OCCCCCCNC[C@H](O)c2ccc(O)c3[nH]c(=O)ccc23)c1` (stereo partly drawn) [Compound 10, (1-(furan-2-ylmethyl)piperidin-4-yl)methyl 1-(3-((6-(((R)-2-hydroxy-2-(8-hydroxy-2-oxo-1,2-dihydroquinolin-5-yl)ethyl)amino)hexyl)oxy)benzamido)-2,3-dihydro-1H-indene-1-carboxylate], the pKi in test [1] is under 8.00; in test [2], 8.00 to 9.00.

In the case of `O=C(NCCCCNC[C@H](O)c1ccc(O)c2[nH]c(=O)ccc12)c1ccc(CNC2(C(=O)O[C@@H]3CCN(Cc4ccccc4)C3)CCc3ccccc32)s1` (single isomer, unassigned; stereoisomer 1) [Compound 26], the pKi in test [1] and in test [2] was under 8.00 in each case.

For the compound `O=C(NCCCCNC[C@H](O)c1ccc(O)c2[nH]c(=O)ccc12)c1ccc(CNC2(C(=O)OC3CCN(Cc4ccccc4)CC3)CCc3ccccc32)s1` (single isomer, unassigned; stereoisomer 1) [Compound 24], the pKi in test [1] was under 8.00; in test [2], over 9.00.

As for `O=C(NCCCCNC[C@H](O)c1ccc(O)c2[nH]c(=O)ccc12)c1ccc(CNC2(C(=O)OCC3CCN(Cc4ccccc4)CC3)CCc3ccccc32)s1` (stereo partly drawn) [Compound 16, (1-benzylpiperidin-4-yl)methyl 1-(((5-((4-(((R)-2-hydroxy-2-(8-hydroxy-2-oxo-1,2-dihydroquinolin-5-yl)ethyl)amino)butyl)carbamoyl)thiophen-2-yl)methyl)amino)-2,3-dihydro-1H-indene-1-carboxylate], the figures for the pKi in test [1] and in test [2] were 8.00 to 9.00 and over 9.00, respectively.

By pKi is commonly meant the negative decadic logarithm of the Ki, by convention in mol/L.
